Values of other authors, collected in patent publication US20140045904A1, “NIACIN FORMULATIONS AND METHODS WITH REDUCED FLUSHING SIDE EFFECT” (priority 2010, published 2014).

How the values were obtained:
[1] = test system: niacin-induced flushing; settings: rofecoxib: single dose of 500 mg immediate-release niacin; laropiprant: clinical trials; aspirin: oral niacin
[2] = test system: rat macrophages; settings: dual inhibitor of COX-1 and COX-2
[3] = test system: PGD-2; settings: niacin given orally (500 mg)
[4] = test system: HDL cholesterol; settings: low doses of niacin (300-1,000 mg/day)
[5] = test system: prostacyclin (PGI-2); settings: ingestion of oral niacin
[6] = target: COX-2 (Homo sapiens, UniProt P35354); settings: while sparing COX-1
COX-2, sequence (P35354 18-604): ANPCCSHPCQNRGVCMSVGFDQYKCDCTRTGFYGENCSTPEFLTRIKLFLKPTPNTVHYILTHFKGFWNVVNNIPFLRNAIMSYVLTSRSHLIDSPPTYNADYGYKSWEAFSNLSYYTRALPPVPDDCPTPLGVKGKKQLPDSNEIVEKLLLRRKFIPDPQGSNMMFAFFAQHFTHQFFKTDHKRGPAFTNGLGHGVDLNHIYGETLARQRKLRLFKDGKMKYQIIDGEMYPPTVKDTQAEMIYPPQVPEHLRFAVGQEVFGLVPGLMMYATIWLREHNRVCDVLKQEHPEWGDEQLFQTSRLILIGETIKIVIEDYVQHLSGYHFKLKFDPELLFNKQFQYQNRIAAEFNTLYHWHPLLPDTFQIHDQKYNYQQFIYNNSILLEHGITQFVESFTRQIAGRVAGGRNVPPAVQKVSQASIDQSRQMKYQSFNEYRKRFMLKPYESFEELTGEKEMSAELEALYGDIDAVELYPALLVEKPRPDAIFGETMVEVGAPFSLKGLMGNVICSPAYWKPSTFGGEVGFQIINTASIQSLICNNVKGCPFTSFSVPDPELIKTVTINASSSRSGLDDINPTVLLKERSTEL

In the case of `CC(=O)Oc1ccccc1C(=O)O` [aspirin], the “effect of pretreatment on flushing from niacin” value (“effect of pretreatment” below) [1] is listed as “can suppress the flush”.
For `COc1ccc2c(c1)c(CC(=O)O)c(C)n2C(=O)c1ccc(Cl)cc1` [indomethacin], the “endogenous production of PGE-2 and PGD-2” value [2] is given as “suppressed”.
In the case of `CS(=O)(=O)c1cc(F)cc2c3c(n(Cc4ccc(Cl)cc4)c12)[C@@H](CC(=O)O)CC3` [laropiprant], the “effect of pretreatment” value [1] is listed as “substantially reduced, but fell far short of eliminating”.
For `O=C(O)c1cccnc1` [niacin, pyridine-3-carboxylic acid], the “increase of levels of the major metabolite of PGD-2” value [3] is given as 400 to 800 fold, the “time to decline of PGD-2 metabolite to near normal levels” value [3] is given as 2 to 4 h and the “time to increase of PGD-2 metabolite after ingestion” value [3] is given as 12 to 45 min. The “raise of HDL cholesterol” value [4] was “up to 45%”, the “increase in prostacyclin (PGI-2)” value [5] was 2 fold and the “major urinary metabolite of PGE-2 (PGE-M)” value [5] was “does not increase”.
For `CS(=O)(=O)c1ccc(C2=C(c3ccccc3)C(=O)OC2)cc1` [rofecoxib], the “inhibition of COX-2 in vivo” value [6] is given as “about 90%” and the “effect of pretreatment” value [1] is given as “did not result in a reduction of flushing”.
